# Experimental data: patent publication US6818646B2 (priority 2000, dated 2004)
# Structures can show the parent of a compound that is named as a salt.
# Target: T1, PDEV (Homo sapiens, UniProt O76074)
# T1 construct: PDEV was isolated from rabbit and human tissues according to the protocol described by Boolell et al; from tissue; host or cells: human tissue, homogenate supernatant fractionated on Mono Q
# Assay: PDE assay: inhibition of PDEV isolated from human tissue
# Assay type: biochemical
# Settings: 10 μM test compound
# Procedure: Briefly, rabbit or human tissues were homogenized in an ice-cold buffer solution containing 20 mM HEPES (pH 7.2), 0.25M sucrose, 1 mM EDTA, and 1 mM phenylmethylsulphonyl fluoride (PMSF). The homogenates were centrifuged at 100,000 g for 60 minutes at 4° C. The supernatant was filtered through […] filter and loaded on a Pharmacia Mono Q anion exchange column (1 ml bed volume) that was equilibrated with 20 mM HEPES, 1 mM EDTA and 0.5 mM PMSF. After washing out unbound proteins, the enzymes were eluted with a linear gradient of 100-600 mM NaCl in the same buffer (35 to 50 ml total, depending on the tissue. Enzymes from the skeletal muscle, corpus cavernosum, retina, heart and platelet were eluted with 35, 40, 45, 50, and 50 ml respectively.) The column was run at a flow rate of 1 ml/min and 1 ml fractions were collected. The fractions comprising various PDE activities were pooled separately and used in later studies.
# The assays were adapted to a 96-well format. The enzyme was assayed in 5 mM MgCl2, 15 mM Tris HCl (pH 7.4), 0.5 mg/ml bovine serum albumin, 1 μM cGMP or cAMP, 0.1 μCi [^3H]-cGMP or [^3H]-cAMP, and 2-10 μl of column elution. The total volume of the assay was 100 μl. The reaction mixture was incubated at 30° C. for 30 minutes. The reaction was stopped by boiling for 1 minute and then cooled down on ice. The resulting [^3H]5′-mononucleotides were further converted to uncharged [^3H]-nucleosides by adding 25 μl 1 mg/ml snake venom (Ophiophagus hannah) and incubating at 30° C. for 10 minute. The reaction was stopped by the addition of 1 ml Bio-Rad AG1-X2 resin slurry (1:3). All the charged nucleotides were bound by the resin and only uncharged [^3H]-nucleosides remained in the supernatant after centrifuging. An aliquot of 200 μl was taken and counted by liquid scintillation. PDE activity was expressed as pmol cyclic nucleotide hydrolyzed/min/ml of enzyme preparation.
# Inhibitor studies were carried out in assay buffer with a final concentration of 10% DMSO.
# The % inhibition of the maximum substrate conversion (by the enzyme in the absence of inhibitor) was calculated for each test compound concentration. Using GraphPad Prism's nonlinear regression analysis (sigmoidal dose response), the % inhibition vs log of the test compound concentration was plotted to determine the IC50. Under conditions where substrate concentration <<Km of the enzyme (Km=substrate concentration at which half of the maximal velocity of the enzyme is achieved), Ki is equivalent to the IC50 value.
# Unless otherwise noted, PDEV inhibitory activities were measured using human tissue. The abbreviation “stereo” refers to the stereogenic configuration, the abbreviation “Rac” shall denote a racemic mixture.
row,SMILES,inhibition at 10 µM [%]
1,"O=c1c2c([nH]c3ccccc13)C(c1ccc3c(c1)CCO3)NC2 (racemic) [Compound 17, 1,2,3,4-Tetrahydro-3-(2,3-dihydrobenzofuran-5-yl)-9H-pyrrolo-[3,4-b]quinolin-9-one, hydrochloride salt]",65

# Same assay, conditions: PDEV inhibitory activity
row,SMILES,IC50 [nM]
1,"COc1ccc(-c2cnc(N3Cc4c([nH]c5ccccc5c4=O)C3c3ccc4c(c3)OCO4)nc2)cc1OC (racemic) [Compound 1, 1,2,3,4-Tetrahydro-2-[5-(3,4-dimethoxyphenyl)-pyrimidin-2-yl]-3-(3,4-methylenedioxyphenyl)-9H-pyrrolo-[3,4-b]quinolin-9-one]",0.165
2,"O=c1c2c([nH]c3ccccc13)C(c1ccc3c(c1)OCO3)NC2 (racemic) [Compound 4, 1,2,3,4-Tetrahydro-3-(3,4-methylenedioxyphenyl)-9H-pyrrolo-[3,4-b]quinolin-9-one, hydrochloride salt]",664
3,"O=c1c2c([nH]c3ccccc13)C(c1ccc3c(c1)OCO3)N(Cc1ccncc1)C2 (racemic) [Compound 5, 1,2,3,4-Tetrahydro-3-(3,4-methylenedioxyphenyl)-2-(pyridin-4-yl)methyl-9H-pyrrolo-[3,4-b]quinolin-9-one]",688
4,"COC(=O)c1ccc(/C=C/C(=O)N2Cc3c([nH]c4ccccc4c3=O)C2c2ccc3c(c2)OCO3)cc1 (racemic) [Compound 6, (E)-4-[3-Oxo-3-[1,2,3,4-tetrahydro-3-(3,4-methylenedioxyphenyl)-9H-pyrrolo-[3,4-b]quinolin-9-one-2-yl]-1-propenyl]benzoic Acid Methyl Ester]",0.507
5,"Cc1ccc(-c2cnc(N3Cc4c([nH]c5ccccc5c4=O)C3c3ccc4c(c3)OCO4)nc2)cc1 (racemic) [Compound 7, 1,2,3,4-Tetrahydro-2-[5-(4-methylphenyl)-pyrimidin-2-yl]-3-(3,4-methylenedioxyphenyl)-9H-pyrrolo-[3,4-b]quinolin-9-one]",0.325
6,"O=C(O)c1ccc(/C=C/C(=O)N2Cc3c([nH]c4ccccc4c3=O)C2c2ccc3c(c2)OCO3)cc1 (racemic) [Compound 8, (E)-4-[3-Oxo-3-[1,2,3,4-tetrahydro-3-(3,4-methylenedioxyphenyl)-9H-pyrrolo-[3,4-b]quinolin-9-one-2-yl]-1-propenyl]benzoic acid]",0.828
7,"O=C(c1cc2ccc(O)cc2o1)N1Cc2c(nc3ccccc3c2O)C1c1ccc2c(c1)OCO2 (racemic) [Compound 9, 1,2,3,4-Tetrahydro-3-(3,4-methylenedioxyphenyl)-2-(6-hydroxy-2-benzo-furoyl)-9H-pyrrolo[3,4-b]quinolin-9-one]",0.46
8,"Oc1c2c(nc3ccccc13)C(c1ccc3c(c1)OCO3)N(c1ncccn1)C2 (racemic) [Compound 11, 1,2,3,4-Tetrahydro-2-(pyrimidin-2-yl)-3-(3,4-methylenedioxyphenyl)-9H-pyrrolo-[3,4-b]quinolin-9-one]",3.73
9,"O=C(c1ccc(-c2ccc([N+](=O)[O-])cc2)o1)N1Cc2c(nc3ccccc3c2O)C1c1ccc2c(c1)OCO2 (racemic) [Compound 16, 1,2,3,4-Tetrahydro-3-(3,4-methylenedioxyphenyl)-2-[5-(4-nitrophenyl)-furoyl]-9H-pyrrolo[3,4-b]quinolin-9-one]",0.39
10,"COC(=O)c1ccc(/C=C/C(=O)N2Cc3c([nH]c4ccccc4c3=O)C2c2ccc3c(c2)CCO3)cc1 (racemic) [Compound 20, (E)-4-[3-Oxo-3-[1,2,3,4-tetrahydro-3-(2,3-dihydrobenzofuran-5-yl)-9H-pyrrolo-[3,4-b]quinolin-9-one-2-yl]-1-propenyl]benzoic acid, methyl ester]",0.53
11,"O=C(c1ccc(-c2ccc(O)cc2)o1)N1Cc2c(nc3ccccc3c2O)C1c1ccc2c(c1)OCO2 (racemic) [Compound 22, 1,2,3,4-Tetrahydro-3-(3,4-methylenedioxyphenyl)-2-[5-(4-hydroxyphenyl)furoyl]-9H-pyrrolo[3,4-b]-quinolin-9-one]",0.86
12,"O=C(c1cccnc1O)N1Cc2c([nH]c3ccccc3c2=O)C1c1ccc2c(c1)OCO2 (racemic) [Compound 25, 1,2,3,4-Tetrahydro-3-(3,4-methylenedioxyphenyl)-2-[2-hydroxynicotinoyl)-9H-pyrrolo[3,4-b]-quinolin-9-one]",1.57
13,"Nc1ccc(-c2ccc(C(=O)N3Cc4c([nH]c5ccccc5c4=O)C3c3ccc4c(c3)OCO4)o2)cc1 (racemic) [Compound 26, 1,2,3,4-tetrahydro-3(3,4-methylenedioxyphenyl)2-[5-(4-aminophenyl)-furoyl]-9H-pyrrolo[3,4-b]quinolin-9-one]",1.92
14,"O=C(c1ccc(-c2ccc(OCCN3CCCC3)cc2)o1)N1Cc2c(nc3ccccc3c2O)C1c1ccc2c(c1)OCO2 (racemic) [Compound 45, 1,2,3,4-Tetrahydro-3-(3.4-methylenedioxyphenyl)-2-(5-(4-(2-(1-pyrrolidinyl)ethoxy)phenyl)-furoyl)-9H-pyrrolo[3,4-b]quinolin-9-one]",1.33
15,"O=c1c2c([nH]c3ccccc13)C(c1ccc3c(c1)OCO3)N(Cc1ccccc1)C2 (racemic) [Compound 54, 1,2,3,4-Tetrahydro-2-benzyl-3-(3,4-methylenedioxyphenyl)-9H-pyrrolo-[3,4-b]quinolin-9-one]",234
16,"O=c1c2c([nH]c3ccccc13)C(c1ccc3c(c1)OCO3)N(c1ncc(Br)cn1)C2 (racemic) [Compound 55, 1,2,3,4-Tetrahydro-2-(5-bromopyrimidin-2-yl)-3-(3,4-methylenedioxyphenyl)-9H-pyrrolo-[3,4-b]quinolin-9-one]",4.48
17,"Oc1c2c(nc3ccccc13)C(c1ccc3c(c1)OCO3)N(c1ncc(-c3cccnc3)cn1)C2 (racemic) [Compound 56, 1,2,3,4-Tetrahydro-2-[5-(3-pyridinyl)-pyrimidin-2-yl]-3-(3,4-methylenedioxyphenyl)-9H-pyrrolo-[3,4-b]quinolin-9-one]",1.24
18,"O=c1c2c([nH]c3ccccc13)C(c1ccc3c(c1)OCO3)N(c1ncc(-c3ccncc3)cn1)C2 (racemic) [Compound 57, 1,2,3,4-Tetrahydro-2-[5-(4-pyridinyl)-pyrimidin-2-yl]-3-(3,4-methylenedioxyphenyl)-9H-pyrrolo-[3,4-b]quinolin-9-one]",0.84
19,Oc1c2c(nc3ccccc13)C(c1ccc3c(c1)CCO3)N(c1ncc(Br)cn1)C2 (racemic) [Compound 74],1.9
20,O=c1c2c([nH]c3ccccc13)C(c1ccc3c(c1)OCO3)N(c1ncc(-c3ccncc3)cn1)C2 (racemic) [Compound 99],0.84
21,Oc1c2c(nc3ccccc13)C(c1ccc3c(c1)OCO3)N(c1ncc(-c3cccnc3)cn1)C2 (racemic) [Compound 100],0.52
22,O=C(c1ccc(-c2ccccc2)o1)N1Cc2c(nc3ccccc3c2O)C1c1ccc2c(c1)OCO2 (racemic) [Compound 110],0.755
23,O=C(c1ccc(-c2ccsc2)o1)N1Cc2c(nc3ccccc3c2O)C1c1ccc2c(c1)OCO2 (racemic) [Compound 112],0.699
24,O=C(c1ccc(-c2ccco2)o1)N1Cc2c(nc3ccccc3c2O)C1c1ccc2c(c1)OCO2 (racemic) [Compound 117],4.75
25,"Oc1c2c(nc3ccccc13)C(c1ccc3c(c1)CCO3)N(c1ncccn1)C2 (racemic) [Compound 123, 3-(2,3-Dihydro-benzofuran-5-yl)-2-pyrimidin-2-yl-1,2,3,4-tetrahydro-pyrrolo[3,4-b]quinolin-9-one]",12.8
26,"O=C(c1ccc(-c2cccc(C(F)(F)F)c2)o1)N1Cc2c([nH]c3ccccc3c2=O)C1c1ccc2c(c1)OCO2 (centres unmarked) [Compound 13, 1,2,3,4-Tetrahydro-3-(3,4-methylenedioxyphenyl)-2-[5-(3-trifluoromethylphenyl)furoyl]-9H-pyrrolo-[3,4-b]quinolin-9-one]",0.227
27,"COc1ccc(-c2cnc(N3Cc4c([nH]c5ccccc5c4=O)C3c3ccc(OC)c(OC)c3)nc2)cc1OC (centres unmarked) [Compound 15, 1,2,3,4-Tetrahydro-[5-(3,4-dimethoxyphenyl)-pyrimidin-2-yl]-3-(3,4-dimethoxyphenyl)-9H-pyrrolo[3,4-b]quinolin-9-one]",1160
28,"COc1ccc(-c2ccc(C(=O)N3Cc4c([nH]c5ccccc5c4=O)C3c3ccc4c(c3)OCO4)o2)cc1 (centres unmarked) [Compound 21, 1,2,3,4-Tetrahydro-3-(3,4-methylenedioxyphenyl)-2-[5-(4-methoxyphenyl)-furoyl]-9H-pyrrolo[3,4-b]-quinolin-9-one]",1.93
